Measurements: patent US4057545A, “Imidazole derivatives” (Nordmark-Werke GmbH Hamburg, priority 1975, dated 1977)

Columns and labels:
[1] = LD50 (mice); conditions: mouse, in vivo
[2] = tested on: Staphylococcus aureus; assay: series dilution test in vitro, Staph. aur.; format: cell-based; set-up: key: .phi.: complete inhibition; (+): strong inhibition; +: moderate inhibition; ++: slight inhibition; +++: no inhibition; conditions: for inhibition of Staph. aur., 1st value: dilution 1: 10,000; for inhibition of Staph. aur., 2nd value: dilution 1: 100,000
Protocol: (§1) The new compounds and their salts are valuable agents for controlling fungi and yeasts and, in addition, are also active against several types of bacteria. To test the antimicrobial activity of the new compounds in vitro, they were tested in a series dilution test with dilutions of from 1:10,000 to 1:100,000 for their effectiveness against the germs Staphylococcus aureus, Trichophyton mentagrophytes and Candida albicans.

[3] = tested on: Candida albicans; assay: series dilution test in vitro, Cand. alb.; format: cell-based; set-up: key: .phi.: complete inhibition; (+): strong inhibition; +: moderate inhibition; ++: slight inhibition; +++: no inhibition; conditions: for inhibition of Cand. alb., 1st value: dilution 1: 10,000; for inhibition of Cand. alb., 2nd value: dilution 1: 100,000
Protocol: as §1

[4] = tested on: Trichophyton mentagrophytes; assay: series dilution test in vitro, Trichoph.; format: cell-based; set-up: key: .phi.: complete inhibition; (+): strong inhibition; +: moderate inhibition; ++: slight inhibition; +++: no inhibition; conditions: for inhibition of Trichoph., 1st value: dilution 1: 10,000; for inhibition of Trichoph., 2nd value: dilution 1: 100,000
Protocol: as §1

[5] = tested on: Candida albicans; assay: oral effectiveness in Candida-infected mice (survival); format: in vivo; conditions: 100 mg/kg twice daily for 7 days
Description: Accordingly, the compounds according to the invention are particularly suitable for the oral treatment of generalized infections by fungi and yeasts in human and veterinary medicine. Since the hitherto available medicaments are not yet satisfactory (Lit.: Infection 2, (1974) 95-107), they represent a valuable addition to pharmacology. In addition, they may be used equally effectively for the local treatment of surface infections and for the treatment of infections of the mucosa excessible to local treatment. Typical diseases of thiskind, for the treatment of which the compounds of the present invention are particular useful, are for instance generalized candidoses, candidoses of the lungs, of the skin or of the genitals or generalized trichophytoses (tineas) or trichophytoses of the skin, of the nails or of the hair.
In order to determine the oral effectiveness of the compounds, groups of 10 mice each weighing approximately 20 g were each treated i.m for 2 days with 50 mg/kg of hydrocortisone to ensure effective development of the infection. The mice were then each infected i.v. with 500,000 Candida albicans germs and thereafter were treated twice daily for 7 days with 100 mg/kg of the substance to be tested. In addition to an infected, but untreated control group, one group was treated with the reference substance Miconazole for comparison.

[6] = mice; literature value; cited from earlier work

| SMILES | LD50 [1] [mg/kg] | inhibition of Staph. aur., 1st value [2] | inhibition of Staph. aur., 2nd value [2] | inhibition of Cand. alb., 1st value [3] | inhibition of Cand. alb., 2nd value [3] | inhibition of Trichoph., 1st value [4] | inhibition of Trichoph., 2nd value [4] | animals still alive on the last day of the treatment [5] [%] | LD50 (Lit.) [6] [mg/kg] |
| --- | --- | --- | --- | --- | --- | --- | --- | --- | --- |
| Clc1ccc(C(=Cc2ccc(Cl)cc2Cl)Cn2ccnc2)cc1 [A, 1-(2,4-dichlorophenyl)-2-(4-chlorophenyl)-3-(imidazolyl-1)-propene-1-nitrate] | ~1000 |  |  |  |  |  |  |  |  |
| C(=C1c2ccccc2CCC1n1ccnc1)c1ccccc1 (stereo not drawn) [n=2, R1=H, R2=H, R3=H, R4=H] |  | .phi. | .phi. | .phi. | +++ | .phi. | .phi. |  |  |
| Clc1ccc(C(=Cc2ccc(Br)cc2)Cn2ccnc2)c(Cl)c1 [G, 1-(4-bromophenyl)-2-(2,4-dichlorophenyl)-3-(imidazolyl-1)-propene-1-nitrate] | ~1000 |  |  |  |  |  |  |  |  |
| Clc1ccc(C(=Cc2ccc(Br)cc2)Cn2ccnc2)cc1 [n=0, R1=4-Cl, R2=H, R3=4-Br, R4=H] |  | .phi. | .phi. | .phi. | ++ | .phi. | .phi. |  |  |
| Clc1ccc(C=C(Cn2ccnc2)c2ccc(Cl)cc2Cl)cc1 [F, 1-(4-chlorophenyl)-2-(2,4-dichlorophenyl)-3-(imidazolyl-1)-propene-1-nitrate] | ~2000 |  |  |  |  |  |  |  |  |
| Clc1ccc(C=C2c3ccccc3CC2n2ccnc2)cc1 (stereo not drawn) [n=1, R1=H, R2=H, R3=H, R4=4-Cl] |  | .phi. | .phi. | .phi. | ++ | .phi. | .phi. |  |  |
| COc1ccc(C(=Cc2ccccc2)Cn2ccnc2)cc1 [n=0, R1=H, R2=4-OCH3, R3=H, R4=H] |  | .phi. | .phi. | .phi. | +++ | .phi. | .phi. |  |  |
| Clc1ccc(C=C2c3ccccc3CCC2n2ccnc2)cc1 (stereo not drawn) [n=2, R1=H, R2=H, R3=H, R4=4-Cl] |  | .phi. | .phi. | .phi. | ++ | .phi. | .phi. |  |  |
| Clc1ccc(C(=Cc2ccccc2)Cn2ccnc2)cc1 [C, 1-phenyl-2-(4-chlorophenyl)-3-(imidazolyl-1)-propene-1-nitrate] | ~1000 |  |  |  |  |  |  |  |  |
| Brc1ccc(C=C(Cn2ccnc2)c2ccc(Br)cc2)cc1 [n=0, R1=4-Br, R2=H, R3=4-Br, R4=H] |  | .phi. | .phi. | .phi. | ++ | .phi. | .phi. |  |  |
| Clc1ccc(C(=Cc2ccc(Br)cc2)Cn2ccnc2)c(Cl)c1 [n=0, R1=4-Cl, R2=2-Cl, R3=4-Br, R4=H] |  | .phi. | .phi. | .phi. | ++ | .phi. | .phi. |  |  |
| Clc1ccc(C=C(Cn2ccnc2)c2ccc(Cl)cc2)cc1 [B, 1-(4-chlorophenyl)-2-(4-chlorophenyl)-3-(imidazolyl-1)-propene-1-nitrate] | ~1000 |  |  |  |  |  |  |  |  |
| Clc1ccc(C=C2c3cc(Cl)ccc3CC2n2ccnc2)c(Cl)c1 (stereo not drawn) [n=1, R1=6-Cl, R2=H, R3=4-Cl, R4=2-Cl] |  | .phi. | .phi. | .phi. | +++ | .phi. | .phi. |  |  |
| Clc1ccc(C=C2c3ccccc3CC2n2ccnc2)cc1Cl (stereo not drawn) [n=1, R1=H, R2=H, R3=3-Cl, R4=4-Cl] |  | .phi. | .phi. | .phi. | ++ | .phi. | .phi. |  |  |
| Clc1ccc(C=C(Cn2ccnc2)c2ccccc2)c(Cl)c1 [D, 1-(2,4-dichlorophenyl)-2-phenyl-3-(imidazolyl-1)-propene-1-nitrate] | ~1000 |  |  |  |  |  |  |  |  |
| Clc1ccc(C=C(Cn2ccnc2)c2ccc(Cl)cc2Cl)c(Cl)c1 [E, 1,2-bis-(2,4-dichlorophenyl)-3-(imidazolyl-1)-propene-1-nitrate] | ~2000 |  |  |  |  |  |  |  |  |
| Clc1ccc(C=C(Cn2ccnc2)c2ccc(Cl)cc2)cc1 [n=0, R1=4-Cl, R2=H, R3=4-Cl, R4=H] |  | .phi. | .phi. | .phi. | (+ ) | .phi. | .phi. |  |  |
| Cc1ccc(C(=Cc2ccc(Cl)cc2Cl)Cn2ccnc2)cc1 [n=0, R1=4-CH3, R2=H, R3=2-Cl, R4=4-Cl] |  | .phi. | .phi. | .phi. | (+) | .phi. | .phi. |  |  |
| Clc1ccc(C(=Cc2ccc(Cl)c(Cl)c2)Cn2ccnc2)c(Cl)c1 [n=0, R1=4-Cl, R2=2-Cl, R3=4-Cl, R4=3-Cl] |  | .phi. | .phi. | .phi. | ++ | .phi. | .phi. |  |  |
| Clc1ccc(C=C2c3cc(Cl)ccc3CC2n2ccnc2)cc1 (stereo not drawn) [n=1, R1=6-Cl, R2=H, R3=4-Cl, R4=H] |  | .phi. | .phi. | .phi. | ++ | .phi. | .phi. |  |  |
| Clc1ccc(COC(Cn2ccnc2)c2ccc(Cl)cc2Cl)c(Cl)c1 (stereo not drawn) [Miconazole, 1-[2,4-dichloro-β-(2,4,-dichlorobenzyloxy)-phenethyl]-imidazole nitrate] |  |  |  |  |  |  |  | 20 | 578 |
